Measurements published in US8877820B2, “Compositions comprising a retinoid and an NFkB-inhibitor and their methods of use” (Johnson & Johnson Consumer Companies, Inc., priority 2010, dated 2014).

Test system: NF-κB gene reporter in FB293 cells
Assay: NFκB-INHIBITION TEST (luciferase gene reporter, TNFα-stimulated FB293 cells)
Assay type: cell-based, human
Conditions: for Percent NF-kB Inhibition: FB293 cells, TNFα 100 ng/ml, 24 h; for NF-κB inhibition (in words): summary of Table 2
Experimental: The NFκB-INHIBITION TEST is conducted in the following manner. FB293 cells, a stable transfected human epithelial cell line containing the gene reporter for NF-κB are used. They may be obtained from, e.g., Panomics (Fremont, Calif.). FB293 are plated at a density of 5×10^4 cells/mL in a suitable medium, e.g., Dulbecco's modified Eagle's medium (DMEM) supplemented with 10% fetal bovine serum (Invitrogen, San Diego, Calif.). The FB293 cells are stimulated with 100 ng/mL of Tumor Necrosis Factor-α (TNFα, available from Sigma-Aldrich of St Louis, Mo.) in the presence of the test sample. Separately, a control sample is tested wherein no test sample is applied. Following a 24-hour incubation at 37° C. with 5% CO2, cells are lysed with 40 μl of reporter lysis buffer (Promega, Madison, Wis.). A 20-μl aliquot of the lysate is assayed using a luciferase assay kit (Promega) and counted for 10 s in a Lmax luminometer (Molecular Devices, Sunnyvale, Calif.) with the data represented as the relative light unit/second. Percent NFκB Inhibition of the test sample is calculated as: NFκB Inhibition=[1−(Lsample/Lcontrol)]*100 where Lsample is the luminescence of the sample and Lcontrol is the luminescence of the control.
The NFκB-INHIBITION TEST described above was performed on test samples of Bay 11-7082 (Sigma-Aldrich, St. Louis, Mo.), Tetrahydrocurcuminoids CG (Sabinsa Corporation, Piscataway, N.J.), as well as various concentrations of 4-hexylresorcinol. The results are shown in Table 2, in which NF-κB Gene Reporter Activation (Luminescence, L) is reported for the test samples and a control sample. Percent NF-κB Inhibition is also reported.

## Cc1ccc(S(=O)(=O)/C=C/C#N)cc1 [Bay 11-7082, (E)-3-(4-methylphenylsulfonyl)-2-propenenitrile]
25 μM
  Percent NF-kB Inhibition: 89.5%
  NF-κB inhibition (in words): strong NF-κB inhibition

## CCCCCCc1ccc(O)cc1O [4-Hexylresorcinol, 4-Hexyl resorcinol]
1 μg/ml
  Percent NF-kB Inhibition: 1.9%
5 μg/ml
  Percent NF-kB Inhibition: 50.9%
10 μg/ml
  Percent NF-kB Inhibition: 72.9%
50 μg/ml
  Percent NF-kB Inhibition: 91.4%
  NF-κB inhibition (in words): strong NF-κB inhibition
